From patent EP1210950B1, “Composition against Coccidiosis” (New Pharma Research Sweden AB, priority 2000, dated 2002)

Experiments:
[1] = system: Eimeria spp.oocysts; experiment: Anticoccidiocidal activity, test A3 (single components; oocyst count in faeces, Mc-Master technique); assay type: in vivo, chickens; conditions: 20 birds in each group; for Mean No. of Eimeria spp.oocysts/gram faeces/group, 5 d.p.i. / Mean No. of Eimeria spp.oocysts/gram faeces/group, 6 d.p.i. / Mean No. of Eimeria spp.oocysts/gram faeces/group, 7 d.p.i. / Mean No. of Eimeria spp.oocysts/gram faeces/group, 8 d.p.i. / Mean No. of Eimeria spp.oocysts/gram faeces/group, 9 d.p.i. / Mean No. of Eimeria spp.oocysts/gram faeces/group, 10 d.p.i. / Mean No. of Eimeria spp.oocysts/gram faeces/group, 12 d.p.i.: during feeding with tested product; for Mean No. of Eimeria spp.oocysts/gram faeces/group, 5 d.p.i.: oral infection with mixture of 5 Eimeria strains, ppm in feed as given per group; for Total number of oocysts: sum of 5-12 d.p.i.
From the text: A total of 100 one day old Habbared X breed chickens were used in the test. They were reared on un-medicated feed as one group during the first 3 days. After that they were allocated into 5 groups (20 each) in 5 separate (1 x 1 meter) pens. With the beginning of the day 8 of bird life, the composition to be tested was mixed into the feed of each group and was used for daily feeding. Fresh water was supplied ad-libetum. The test groups were: [table] The birds were kept on medicated feed for totally […]. […] Eimeria acervulina, E. maxima, E. necatrix, E. tenella and E. brunetti. Fresh fecal droplets were collected daily from the 4th day post experimental infection until day 13 post infection. Mean number of oocyst per gram […] for each group were calculated using the Mc-Master technique according to Soulsby (1984).

[2] = system: Eimeria spp.oocysts; experiment: Anticoccidiocidal activity, test A2 (oocyst count in faeces of infected chickens, medicated feed); assay type: in vivo; conditions: 22 birds in each group
From the text: A total of 88 one day old Habbared X breed chickens were used in the test. They were allocated into 4 groups (22 birds in each group), one group serving as a control group.
(§1) Each composition to be tested was mixed in a sufficient amount of feed for each group and was used for daily feeding from the day zero of the test. Fresh water was supplied ad-libetum.

[3] = system: Eimeria spp.oocysts; experiment: Anticoccidiocidal activity, test A1 (oocyst count in faeces of infected chickens, medicated feed); assay type: in vivo; conditions: 23 birds in each group
From the text: A total of 92 one day old Habbared X breed chickens were used in the test. They were allocated into 4 groups (23 birds in each group), one group serving as a control group.
as §1

[4] = 6 d.p.i., during feeding with tested product, ppm in feed as given per group
[5] = 7 d.p.i., during feeding with tested product
[6] = 8 d.p.i., during feeding with tested product
[7] = 9 d.p.i., during feeding with tested product
[8] = 10 d.p.i., during feeding with tested product
[9] = 11 d.p.i., during feeding with tested product
[10] = 12 d.p.i., during feeding with tested product
[11] = 13 d.p.i., during feeding with tested product

Row | SMILES | Mean No. of Eimeria spp.oocysts/gram faeces/group, 5 d.p.i. [1] | Mean No. of Eimeria spp.oocysts/gram faeces/group, 6 d.p.i. [1] | Mean No. of Eimeria spp.oocysts/gram faeces/group, 7 d.p.i. [1] | Mean No. of Eimeria spp.oocysts/gram faeces/group, 8 d.p.i. [1] | Mean No. of Eimeria spp.oocysts/gram faeces/group, 9 d.p.i. [1] | Mean No. of Eimeria spp.oocysts/gram faeces/group, 10 d.p.i. [1] | Total number of oocysts [1] | Mean No. of Eimeria spp.oocysts/gram faeces/group, 12 d.p.i. [1] | further results
1 | CN[C@@H]1[C@H](O[C@H]2[C@H](O[C@H]3[C@H](O)[C@@H](O)[C@H](NC(=N)N)[C@@H](O)[C@@H]3NC(=N)N)O[C@@H](C)[C@]2(O)CO)O[C@@H](CO)[C@H](O)[C@H]1O [dihydro-streptomycin, dihydrostreptomycin] | 0.0 oocysts/gram faeces/group (number per thousand oocysts) | 38 oocysts/gram faeces/group (number per thousand oocysts) | 710 oocysts/gram faeces/group (number per thousand oocysts) | 138 oocysts/gram faeces/group (number per thousand oocysts) | 138 oocysts/gram faeces/group (number per thousand oocysts) | 0 oocysts/gram faeces/group (number per thousand oocysts) | 956 oocysts/gram faeces/group (number per thousand oocysts) | – | –
2 | NC(N)=Nc1nc(CSCCC(N)=NS(N)(=O)=O)cs1 [Famo-tidine, Famotidine] | 0.0 oocysts/gram faeces/group (number per thousand oocysts) | 0.0 oocysts/gram faeces/group (number per thousand oocysts) | 160 oocysts/gram faeces/group (number per thousand oocysts) | 280 oocysts/gram faeces/group (number per thousand oocysts) | 460 oocysts/gram faeces/group (number per thousand oocysts) | 10 oocysts/gram faeces/group (number per thousand oocysts) | 910 oocysts/gram faeces/group (number per thousand oocysts) | 0 oocysts/gram faeces/group (number per thousand oocysts) | –
3 | Nc1nc2ncc(CNc3ccc(C(=O)N[C@@H](CCC(=O)O)C(=O)O)cc3)nc2c(=O)[nH]1 [folic acid] | 0 oocysts/gram faeces/group (number per thousand oocysts) | 22 oocysts/gram faeces/group (number per thousand oocysts) | 251 oocysts/gram faeces/group (number per thousand oocysts) | 310 oocysts/gram faeces/group (number per thousand oocysts) | 220 oocysts/gram faeces/group (number per thousand oocysts) | 3 oocysts/gram faeces/group (number per thousand oocysts) | 806 oocysts/gram faeces/group (number per thousand oocysts) | 0 oocysts/gram faeces/group (number per thousand oocysts) | –
4 | Cc1nc(C)c(Cl)c(O)c1Cl [Clopidol] | – | – | – | – | – | – | – | – | Mean No. of Eimeria spp.oocysts/gram faeces/group, 6 d.p.i. [2, 4]: 2 oocysts/gram faeces/group (number per thousand oocysts); Mean No. of Eimeria spp.oocysts/gram faeces/group, 7 d.p.i. [2, 5]: 900 oocysts/gram faeces/group (number per thousand oocysts); Mean No. of Eimeria spp.oocysts/gram faeces/group, 8 d.p.i. [2, 6]: 1300 oocysts/gram faeces/group (number per thousand oocysts); Mean No. of Eimeria spp.oocysts/gram faeces/group, 9 d.p.i. [2, 7]: 980 oocysts/gram faeces/group (number per thousand oocysts); Mean No. of Eimeria spp.oocysts/gram faeces/group, 10 d.p.i. [2, 8]: 1500 oocysts/gram faeces/group (number per thousand oocysts); Mean No. of Eimeria spp.oocysts/gram faeces/group, 11 d.p.i. [2, 9]: 200 oocysts/gram faeces/group (number per thousand oocysts); Mean No. of Eimeria spp.oocysts/gram faeces/group, 12 d.p.i. [2, 10]: 200 oocysts/gram faeces/group (number per thousand oocysts); Mean No. of Eimeria spp.oocysts/gram faeces/group, 13 d.p.i. [2, 11]: 130 oocysts/gram faeces/group (number per thousand oocysts); Total number of oocysts ([2]; sum of 6-13 d.p.i.): 5212 oocysts/gram faeces/group (number per thousand oocysts); Mean No. of Eimeria spp.oocysts/gram faeces/group, 6 d.p.i. [3, 4]: 8 oocysts/gram faeces/group (number per thousand oocysts); Mean No. of Eimeria spp.oocysts/gram faeces/group, 7 d.p.i. [3, 5]: 9600 oocysts/gram faeces/group (number per thousand oocysts); Mean No. of Eimeria spp.oocysts/gram faeces/group, 8 d.p.i. [3, 6]: 1872 oocysts/gram faeces/group (number per thousand oocysts); Mean No. of Eimeria spp.oocysts/gram faeces/group, 9 d.p.i. [3, 7]: 3900 oocysts/gram faeces/group (number per thousand oocysts); Mean No. of Eimeria spp.oocysts/gram faeces/group, 10 d.p.i. [3, 8]: 420 oocysts/gram faeces/group (number per thousand oocysts); Mean No. of Eimeria spp.oocysts/gram faeces/group, 11 d.p.i. [3, 9]: 14 oocysts/gram faeces/group (number per thousand oocysts); Mean No. of Eimeria spp.oocysts/gram faeces/group, 12 d.p.i. [3, 10]: 53 oocysts/gram faeces/group (number per thousand oocysts); Mean No. of Eimeria spp.oocysts/gram faeces/group, 13 d.p.i. [3, 11]: 250 oocysts/gram faeces/group (number per thousand oocysts); Total number of oocysts ([3]; sum of 6-13 d.p.i.): 16117 oocysts/gram faeces/group (number per thousand oocysts)
